Where a name gives a salt, the structure may show the parent alone.
Experiments:
[1] = biological target: T1, SHIP2 immunoprecipitated from the lysates of podocytes (Homo sapiens, UniProt O15357); test: Activity of SHIP2 immunoprecipitated from podocytes; format: cell-based; settings: 20–24 h
T1 construct: endogenous in cells; host or cells: immortalized human podocytes
T1 sequence (O15357 1-1258): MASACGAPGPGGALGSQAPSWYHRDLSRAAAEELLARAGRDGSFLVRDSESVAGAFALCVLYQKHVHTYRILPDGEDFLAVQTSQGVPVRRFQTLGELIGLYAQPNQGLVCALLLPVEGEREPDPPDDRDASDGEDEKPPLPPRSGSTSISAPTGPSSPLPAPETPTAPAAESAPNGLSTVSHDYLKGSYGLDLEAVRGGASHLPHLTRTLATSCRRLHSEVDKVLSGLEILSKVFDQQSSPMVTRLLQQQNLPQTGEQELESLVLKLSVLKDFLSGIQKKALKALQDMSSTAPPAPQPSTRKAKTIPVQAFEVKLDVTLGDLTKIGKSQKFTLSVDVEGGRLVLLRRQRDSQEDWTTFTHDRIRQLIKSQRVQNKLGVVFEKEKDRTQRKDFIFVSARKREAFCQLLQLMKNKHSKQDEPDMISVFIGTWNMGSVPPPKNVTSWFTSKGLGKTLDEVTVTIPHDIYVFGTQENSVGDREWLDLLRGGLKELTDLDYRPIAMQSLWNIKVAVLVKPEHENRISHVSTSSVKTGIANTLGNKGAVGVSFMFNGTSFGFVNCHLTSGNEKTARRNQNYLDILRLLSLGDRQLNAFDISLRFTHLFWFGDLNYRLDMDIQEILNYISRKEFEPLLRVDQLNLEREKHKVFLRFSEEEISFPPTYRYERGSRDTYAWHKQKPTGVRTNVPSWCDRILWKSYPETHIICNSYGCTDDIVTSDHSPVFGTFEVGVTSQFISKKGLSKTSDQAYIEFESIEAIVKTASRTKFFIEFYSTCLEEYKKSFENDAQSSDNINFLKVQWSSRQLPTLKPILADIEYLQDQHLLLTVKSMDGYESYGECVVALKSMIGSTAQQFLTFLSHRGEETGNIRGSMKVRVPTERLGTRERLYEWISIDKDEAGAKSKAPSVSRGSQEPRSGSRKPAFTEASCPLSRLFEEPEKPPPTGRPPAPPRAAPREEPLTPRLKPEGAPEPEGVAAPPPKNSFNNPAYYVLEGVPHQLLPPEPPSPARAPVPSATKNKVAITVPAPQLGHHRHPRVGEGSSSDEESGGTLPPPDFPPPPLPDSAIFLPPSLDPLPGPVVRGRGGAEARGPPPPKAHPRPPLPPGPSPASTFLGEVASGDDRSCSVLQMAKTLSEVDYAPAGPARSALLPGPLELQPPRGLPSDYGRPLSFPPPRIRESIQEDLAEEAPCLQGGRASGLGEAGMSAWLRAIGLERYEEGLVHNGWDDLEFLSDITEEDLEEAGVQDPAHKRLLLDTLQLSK
Description: Immortalized human podocytes were maintained as previously described ([10]). […] Podocytes were lysed as previously described ([21]).
Recombinant His-tagged human SHIP2 and SHIP1 phosphatase domains were produced as previously described ([17]). […] Immunocomplexes were bound to protein G-Sepharose beads at +4°C for 2 h and washed 3 times with malachite green phosphate assay buffer {10 mM 4-(2-hydroxyethyl)-1-piperazineethanesulfonic acid (HEPES), pH 7.25, 6 mM MgCl2, 0.1% 3-[(3-cholamidopropyl)dimethylammonio]-1-propanesulfonate (CHAPS), 250 mM sucrose, and 0.25 mM EDTA}.
The catalytic activities of the recombinant SHIP2 and SHIP1 phosphatase domains were determined by malachite green phosphate assay at the High Throughput Biomedicine Unit (University of Helsinki) using D-myo-PI(3,4,5)P3 (Echelon Biosciences, Salt Lake City, UT, USA). Different volumes, resulting in desired final concentrations of inhibitors, were transferred to the wells of 384-well plates by using the Echo550 acoustic dispenser (Labcyte, San Jose, CA, USA). Recombinant protein (100 ng) in reaction buffer {10 mM HEPES, pH 7.25, 6 mM MgCl2, 0.1% CHAPS, 250 mM sucrose, and 0.25 mM EDTA} was placed in each well (7.5 µl), and the plates were preincubated at room temperature for 15 min. The phosphatase reaction was started by adding PI(3,4,5)P3 diluted in the reaction buffer (7.5 µl) to each well to reach a final concentration of 100 µM PI(3,4,5)P3 in the 15 µl reaction volume. […] Absorbance was measured at 620 nm using a Pherastar FS plate reader (BMG Labtech, Offenburg, Germany). […] The catalytic activity of SHIP2 immunoprecipitated from cell and tissue lysates was determined as in Saurus et al. ([22]), omitting SHIP2 inhibitors in lysis buffer, immunoprecipitation reaction, wash, and assay buffers. […]
Hydrogen bond is shown in green. […] The catalytic activity of SHIP2 was measured by manual malachite green phosphate assay.

[2] = biological target: T2, phosphatase and tensin homolog (PTEN) (Homo sapiens, UniProt P60484); test: Manual malachite green phosphate assay, PTEN activity; format: biochemical
T2 construct: purchased Signalchem
T2 sequence (P60484 whole entry, species assumed): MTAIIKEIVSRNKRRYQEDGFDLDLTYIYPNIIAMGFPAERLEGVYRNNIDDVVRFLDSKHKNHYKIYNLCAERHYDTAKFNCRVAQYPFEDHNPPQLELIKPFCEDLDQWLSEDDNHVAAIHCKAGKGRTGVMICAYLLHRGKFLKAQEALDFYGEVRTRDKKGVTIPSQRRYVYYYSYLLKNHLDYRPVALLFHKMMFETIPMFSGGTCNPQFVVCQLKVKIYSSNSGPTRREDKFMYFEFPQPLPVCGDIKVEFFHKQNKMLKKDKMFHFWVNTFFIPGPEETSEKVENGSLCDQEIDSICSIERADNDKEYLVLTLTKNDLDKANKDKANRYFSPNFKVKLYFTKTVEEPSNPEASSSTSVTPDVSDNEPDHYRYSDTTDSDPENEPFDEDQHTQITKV
Description: The catalytic activities of the recombinant SHIP2 and SHIP1 phosphatase domains were determined by malachite green phosphate assay at the High Throughput Biomedicine Unit (University of Helsinki) using D-myo-PI(3,4,5)P3 (Echelon Biosciences, Salt Lake City, UT, USA). Different volumes, resulting in desired final concentrations of inhibitors, were transferred to the wells of 384-well plates by using the Echo550 acoustic dispenser (Labcyte, San Jose, CA, USA). Recombinant protein (100 ng) in reaction buffer {10 mM HEPES, pH 7.25, 6 mM MgCl2, 0.1% CHAPS, 250 mM sucrose, and 0.25 mM EDTA} was placed in each well (7.5 µl), and the plates were preincubated at room temperature for 15 min. The phosphatase reaction was started by adding PI(3,4,5)P3 diluted in the reaction buffer (7.5 µl) to each well to reach a final concentration of 100 µM PI(3,4,5)P3 in the 15 µl reaction volume. The plates were incubated at room temperature for 20 min, after which, 15 µl BIOMOL green reagent (Biomol, Plymouth Meeting, PA, USA) was added to each well, and then the plates were incubated for another 25 min at room temperature. Absorbance was measured at 620 nm using a Pherastar FS plate reader (BMG Labtech, Offenburg, Germany). For the manual malachite green phosphate assay in 96-well plates [see Fig. 1; and activity measurement of phosphatase and tensin homolog (PTEN; Signalchem, Richmond, BC, Canada)], the reaction volume was increased to 50 µl, and 100 µl Biomol Green Reagent was added.

db/db mice = test: Metabolic assays in db/db mice; format: in vivo, mouse; settings: 250 mg/kg per day, 12 d
Description: At the end of the experiment, mice were euthanized.
Insulin tolerance test was performed and blood glucose measured at the indicated times after insulin injection, and the area under the curve (AUC) was calculated (n = 5–6).

SHIP2 expression level = test: Immunoblot of SHIP2 expression in cultured cells; format: cell-based, rat, human; settings: 2 mM, 20–24 h; myotubes, podocytes, hepatoma cells
Description: Rat L6 myoblasts (American Type Culture Collection, Manassas, VA, USA) and hepatoma cells (Fao Cells, Culture Collection; Public Health England, Salisbury, United Kingdom) were maintained according to the provider’s instructions. L6 myoblasts stably expressing hemagglutinin-GLUT4-green fluorescent protein (HA-GLUT4-GFP, referred to as L6-GLUT4) were generated, as previously described ([19]). Immortalized human podocytes were maintained as previously described ([10]). Lentiviral infection was used to overexpress or knock down transiently SHIP2 in cultured cells on d 10–12 of differentiation for 48 h (basal level) or 72 h (insulin stimulation), as previously described ([10], [20]). Human pLKO1-short hairpin RNA (shRNA) SHIP2 ([sequence]) was obtained from Functional Genomics Unit, University of Helsinki. […] Podocytes were lysed as previously described ([21]). Myotubes, hepatoma cells, and tissues were lysed and immunoblotting performed as in Tolvanen et al. ([19]) with anti-SHIP2 and anti-AMPK (Santa Cruz Biotechnology, Dallas, TX, USA); anti-phospho (p)Akt (S473), anti-pAMPK (Thr172), anti-AMPK, and anti-cleaved caspase-3 (Cell Signaling Technology, Danvers, MA, USA); anti-Pan Akt (R&D Systems, Minneapolis, MN, USA); anti-tubulin, anti-Glut4, and anti-Glut1 (MilliporeSigma, Burlington, MA, USA); and anti-actin (Abcam, Cambridge, United Kingdom).

[3] = biological target: SHIP2 in tissues of db/db mice (Mus musculus, UniProt Q6P549); settings: 250 mg/kg per day, 12 d
Sequence of SHIP2 in tissues of db/db mice (Q6P549 whole entry): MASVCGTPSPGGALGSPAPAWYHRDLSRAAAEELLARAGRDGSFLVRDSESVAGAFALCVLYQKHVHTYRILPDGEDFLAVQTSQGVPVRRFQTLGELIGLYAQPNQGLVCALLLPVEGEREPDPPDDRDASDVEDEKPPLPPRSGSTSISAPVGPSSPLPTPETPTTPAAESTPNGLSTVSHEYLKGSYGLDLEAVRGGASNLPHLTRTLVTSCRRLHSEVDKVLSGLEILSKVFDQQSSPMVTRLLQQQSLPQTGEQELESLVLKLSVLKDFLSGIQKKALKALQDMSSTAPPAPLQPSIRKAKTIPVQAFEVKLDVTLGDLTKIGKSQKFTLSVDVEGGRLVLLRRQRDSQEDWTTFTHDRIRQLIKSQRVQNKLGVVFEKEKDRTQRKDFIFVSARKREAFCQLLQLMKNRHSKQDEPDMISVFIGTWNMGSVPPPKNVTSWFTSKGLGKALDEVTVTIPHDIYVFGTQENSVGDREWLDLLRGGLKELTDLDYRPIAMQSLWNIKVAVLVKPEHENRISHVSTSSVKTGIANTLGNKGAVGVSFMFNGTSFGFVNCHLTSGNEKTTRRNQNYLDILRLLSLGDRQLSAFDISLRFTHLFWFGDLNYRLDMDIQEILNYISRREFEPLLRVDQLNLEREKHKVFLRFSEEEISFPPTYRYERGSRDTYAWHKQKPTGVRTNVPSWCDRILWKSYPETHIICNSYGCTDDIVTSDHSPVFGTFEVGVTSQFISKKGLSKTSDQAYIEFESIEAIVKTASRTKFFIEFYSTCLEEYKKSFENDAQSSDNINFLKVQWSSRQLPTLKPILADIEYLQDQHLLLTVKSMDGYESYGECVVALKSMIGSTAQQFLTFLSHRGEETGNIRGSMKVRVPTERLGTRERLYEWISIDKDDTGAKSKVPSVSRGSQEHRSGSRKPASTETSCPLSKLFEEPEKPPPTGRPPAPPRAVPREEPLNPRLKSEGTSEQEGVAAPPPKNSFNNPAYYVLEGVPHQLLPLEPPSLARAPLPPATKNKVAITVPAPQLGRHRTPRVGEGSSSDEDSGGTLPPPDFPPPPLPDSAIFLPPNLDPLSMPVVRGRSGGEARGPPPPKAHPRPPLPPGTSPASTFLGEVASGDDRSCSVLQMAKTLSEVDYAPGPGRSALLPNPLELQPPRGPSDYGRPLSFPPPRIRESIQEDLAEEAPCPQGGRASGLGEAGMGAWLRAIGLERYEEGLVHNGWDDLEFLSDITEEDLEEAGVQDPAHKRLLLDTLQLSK
Description: At the end of the experiment, mice were euthanized. Freshly dissected skeletal muscle, kidney, and liver tissues were snap frozen in liquid nitrogen, embedded in Tissue-Tek Optimal Cutting Temperature (OCT) compound (Sakura Finetek, Alphen aan den Rijn, The Netherlands), or fixed in 10% formalin, followed by embedding in paraffin.
SHIP2 was immunoprecipitated from tissue lysates and its catalytic activity measured by malachite green phosphate assay (n = 6–8).

[4] = tested on: podocytes in kidneys of patients with T2D; test: Podocyte number per glomerulus (WT1-positive cells) in patient kidneys; format: in vivo, human; settings: compared with people without T2D; WT1-positive cells per glomeruli
Description: The use of human material was approved by the local Ethics Committee, and written, informed consent was received from study participants. Paraffin sections were stained with anti-SHIP2 (I-20) as in Hyvonen et al. ([10]) or anti- Wilms tumor protein 1 (WT1; Santa Cruz Biotechnology) using the Brightvision Poly-HRP-anti-Rabbit IgG kit (ImmunoLogic, Amsterdam, The Netherlands) and 3,3′-diaminobenzidine (Dako Cytomation, Carpinteria, CA, USA). Slides were counterstained with hematoxylin and digitally scanned with 3DHistech Pannoramic 250 FLASH II (3DHistech, Budapest, Hungary) at the Genome Biology Unit (University of Helsinki). Quantification of SHIP2 staining intensity was performed with the HistoQuant module (3DHistech). Podocyte number was estimated by counting the number of WT1-positive cells per glomerular cross-section in 10 glomeruli per patient in a blinded manner, as described in Guo et al. ([24]). Only glomeruli larger than 170 µm in diameter were examined to ensure sectioning through the center of each glomerulus.
Kidney samples were lysed, and the enzymatic activity of immunoprecipitated SHIP2 was analyzed by malachite green phosphate assay (n = 4–7). […] Ten randomly chosen glomeruli were analyzed from each patient (n = 6–7). […] Podocyte number per glomeruli was quantified by counting WT1-positive cells. Ten randomly chosen glomeruli were analyzed from each patient (n = 9–30).

[5] = tested on: Akt phosphorylation (pAkt S473); test: Immunoblot of Akt phosphorylation in cultured cells; format: cell-based, rat, human; settings: 2 mM, 20–24 h
Description: Lentiviral infection was used to overexpress or knock down transiently SHIP2 in cultured cells on d 10–12 of differentiation for 48 h (basal level) or 72 h (insulin stimulation), as previously described ([10], [20]). […] Podocytes were lysed as previously described ([21]). Myotubes, hepatoma cells, and tissues were lysed and immunoblotting performed as in Tolvanen et al. ([19]) with anti-SHIP2 and anti-AMPK (Santa Cruz Biotechnology, Dallas, TX, USA); anti-phospho (p)Akt (S473), anti-pAMPK (Thr172), anti-AMPK, and anti-cleaved caspase-3 (Cell Signaling Technology, Danvers, MA, USA); anti-Pan Akt (R&D Systems, Minneapolis, MN, USA); anti-tubulin, anti-Glut4, and anti-Glut1 (MilliporeSigma, Burlington, MA, USA); and anti-actin (Abcam, Cambridge, United Kingdom).
Cell lysates were subjected to immunoblot analysis with anti-SHIP2, anti-cleaved caspase-3, and anti-actin IgGs. […] Cell lysates were subjected to immunoblot analysis with anti-SHIP2, anti-Akt, anti-pAkt, and anti-actin IgGs. G) Quantification of pAkt levels in F presented as pAkt/Akt after normalizing to actin. Data are presented as the mean ± SD of 3–5 independent experiments. *P ≤ 0.05, **P ≤ 0.01, ***P ≤ 0.001 (Student’s t test).

SMILES	reduction of SHIP2 activity in podocytes ([1]; 20 µM)	PTEN Inhibition efficiency ([2]; inhibitors at 100 µM concentration)	IC50 ([2]; manual assay)	effect on body weight (db/db mice)	effect on fasting blood glucose concentrations (db/db mice; 6 h fasting)	effect on urinary albumin excretion (db/db mice; 24 h urine)	insulin tolerance test: fasting blood glucose at 30–120 min after insulin administration (db/db mice; insulin 0.75 U/kg)	insulin tolerance test: glucose area under the curve (db/db mice; insulin 0.75 U/kg)	reduction of SHIP2 activity in podocytes ([1]; 1 mM)	inhibition of PTEN (in words) [2]	PTEN IC50 ([2]; manual assay)	effect on SHIP2 expression level in cultured cells (SHIP2 expression level)	SHIP2 activity in the liver [3]	decrease in enzymatic activity of SHIP2 in kidney [3]	podocyte loss in metformin-receiving patients [4]	insulin-induced Akt phosphorylation in SHIP2-overexpressing podocytes ([5]; insulin 200 nM, 15 min)	Akt phosphorylation (activity) in basal state ([5]; myotubes and podocytes)
C[C@H](NC(=O)c1sccc1OCc1ccc(Cl)cc1)c1ccccc1 [AS1949490]	20–30%	0%	> 50 µM	–	–	–	–	–	–	–	–	–	–	–	–	–	–
CN(C)C(=N)N=C(N)N [Metformin, 1,1-Dimethylbiguanide hydrochloride]	20–30%	–	–	no effect	no effect	no effect	reduces	reduces	14%	does not inhibit	>50 µM	no effect	not reduced	40%	11%	restored its activity	did not increase
